Laboratory results: ChEMBL document CHEMBL1909514, “Imidazo[2,1-b]thiazole guanylhydrazones as RSK2 inhibitors” (Eur J Med Chem, 2011)
Active and inactive are the calls of the source. How the calls were made is not given here.

Target: T1, Aurora kinase A (Homo sapiens) (UniProt O14965)
T1 sequence (whole entry): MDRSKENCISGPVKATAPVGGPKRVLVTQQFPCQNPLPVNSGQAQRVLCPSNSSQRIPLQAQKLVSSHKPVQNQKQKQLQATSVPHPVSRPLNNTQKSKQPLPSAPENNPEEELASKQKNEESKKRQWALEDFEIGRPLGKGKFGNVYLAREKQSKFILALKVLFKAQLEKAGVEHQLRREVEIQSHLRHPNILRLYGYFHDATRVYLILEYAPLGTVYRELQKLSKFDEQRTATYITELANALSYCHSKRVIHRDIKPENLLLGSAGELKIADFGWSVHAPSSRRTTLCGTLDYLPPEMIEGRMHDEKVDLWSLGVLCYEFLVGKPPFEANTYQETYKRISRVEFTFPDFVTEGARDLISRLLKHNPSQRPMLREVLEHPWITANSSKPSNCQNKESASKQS
Test: Inhibition of Aurora kinase A assessed as inhibition of substrate phosphorylation using fluorescent peptide substrate up to 100 uM by microplate reader assay

inhibition, inactive:
O=Cc1c(-c2cccc([N+](=O)[O-])c2F)nc2sccn12
Fc1cc(F)c(-c2cn3ccsc3n2)cc1F
O=[N+]([O-])c1cccc(-c2cn3ccsc3n2)c1F
N=C(N)N/N=C\c1c(-c2ccccc2)nc2sc(N)nn12
O=Cc1c(-c2ccc(F)c(F)c2)nc2sccn12
O=Cc1c(-c2ccc(F)c([N+](=O)[O-])c2)nc2sccn12
O=Cc1c(-c2ccc(F)c([N+](=O)[O-])c2)nc2sc(Cl)cn12
O=[N+]([O-])c1cc(-c2cn3ccsc3n2)ccc1Br
Cc1cn2cc(-c3ccc(F)c([N+](=O)[O-])c3)nc2s1
N#Cc1ccc(-c2cn3cc(Cl)sc3n2)cc1
O=Cc1c(-c2cc(F)c(F)cc2F)nc2sccn12
O=Cc1c(-c2ccccc2F)nc2sccn12
Cc1cn2cc(-c3ccc(F)cc3)nc2s1
O=Cc1c(-c2cc(Cl)sc2Cl)nc2ccccn12
Cc1nn2c(C=O)c(-c3cc(Cl)sc3Cl)nc2s1
COc1cc([N+](=O)[O-])c(OC)cc1-c1cn2nc(C)sc2n1
O=Cc1c(-c2ccc(Br)c([N+](=O)[O-])c2)nc2sccn12
Clc1cc(-c2cn3ccccc3n2)c(Cl)s1
O=[N+]([O-])c1cc(-c2cn3cc(Cl)sc3n2)ccc1F
O=[N+]([O-])c1cc(-c2cn3ccsc3n2)ccc1F
O=[N+]([O-])c1ccc(-c2cn3cc(F)sc3n2)cc1
Clc1cc(-c2cn3cc(Cl)sc3n2)c(Cl)s1
O=Cc1c(-c2ccc(F)cc2)nc2sccn12
O=Cc1c(-c2ccc([N+](=O)[O-])cc2)nc2sc(F)cn12
Fc1ccccc1-c1cn2ccsc2n1
COc1cc([N+](=O)[O-])c(OC)cc1-c1nc2sc(C)nn2c1C=O
COc1cc([N+](=O)[O-])c(OC)cc1-c1cn2c(n1)sc1ccccc12
Cc1cn2c(C=O)c(-c3ccc(F)c([N+](=O)[O-])c3)nc2s1
O=[N+]([O-])c1ccc(-c2cn3cc(Br)sc3n2)cc1
COc1cc([N+](=O)[O-])c(OC)cc1-c1nc2sc3ccccc3n2c1C=O
O=Cc1c(-c2c(F)cccc2F)nc2sccn12
O=Cc1c(-c2ccc(F)cc2)nc2sc(Cl)cn12
COc1cc([N+](=O)[O-])c(OC)cc1-c1cn2ccccc2n1
COc1cc([N+](=O)[O-])c(OC)cc1-c1nc2ccccn2c1C=O
Clc1cc(-c2cn3c(n2)sc2ccccc23)c(Cl)s1
Fc1ccc(-c2cn3cc(Cl)sc3n2)cc1
N#Cc1ccc(-c2nc3sc(Cl)cn3c2C=O)cc1
O=Cc1c(-c2cc(Cl)sc2Cl)nc2sc3ccccc3n12
Cc1nn2cc(-c3cc(Cl)sc3Cl)nc2s1
Nc1nn2c(C=O)c(-c3ccccc3)nc2s1
